Test results taken from the NIST ThermoML archive (doi:10.1016/j.jct.2012.11.002).
Numbers after ± are expanded uncertainties.

Conditions: Liquid, Vibrating tube method

Structure (SMILES): CCOC(=O)C(C)O (racemic) [DL-ethyl lactate]
- mass density (283.15 K, 100 kPa): 1045.06 ± 0.93 kg/m3
- mass density (283.15 K, 2500 kPa): 1046.77 ± 0.94 kg/m3
- mass density (283.15 K, 5000 kPa): 1048.51 ± 0.95 kg/m3
- mass density (283.15 K, 7500 kPa): 1050.24 ± 0.95 kg/m3
- mass density (283.15 K, 10000 kPa): 1051.88 ± 0.96 kg/m3
- mass density (283.15 K, 20000 kPa): 1058.39 ± 1 kg/m3
- mass density (283.15 K, 30000 kPa): 1064.45 ± 1 kg/m3
- mass density (283.15 K, 40000 kPa): 1070.13 ± 1.1 kg/m3
- mass density (283.15 K, 50000 kPa): 1075.5 ± 1.1 kg/m3
- mass density (283.15 K, 60000 kPa): 1080.55 ± 1.2 kg/m3
- mass density (288.15 K, 100 kPa): 1039.64 ± 0.92 kg/m3
- mass density (288.15 K, 2500 kPa): 1041.39 ± 0.93 kg/m3
- mass density (288.15 K, 5000 kPa): 1043.21 ± 0.93 kg/m3
- mass density (288.15 K, 7500 kPa): 1044.99 ± 0.94 kg/m3
- mass density (288.15 K, 10000 kPa): 1046.74 ± 0.95 kg/m3
- mass density (288.15 K, 20000 kPa): 1053.28 ± 0.99 kg/m3
- mass density (288.15 K, 30000 kPa): 1059.46 ± 1 kg/m3
- mass density (288.15 K, 40000 kPa): 1065.24 ± 1.1 kg/m3
- mass density (288.15 K, 50000 kPa): 1070.74 ± 1.1 kg/m3
- mass density (288.15 K, 60000 kPa): 1076.04 ± 1.2 kg/m3
- mass density (293.15 K, 100 kPa): 1034.25 ± 0.91 kg/m3
- mass density (293.15 K, 2500 kPa): 1036.05 ± 0.91 kg/m3
- mass density (293.15 K, 5000 kPa): 1037.86 ± 0.92 kg/m3
- mass density (293.15 K, 7500 kPa): 1039.7 ± 0.93 kg/m3
- mass density (293.15 K, 10000 kPa): 1041.5 ± 0.94 kg/m3
- mass density (293.15 K, 20000 kPa): 1048.3 ± 0.97 kg/m3
- mass density (293.15 K, 30000 kPa): 1054.58 ± 1 kg/m3
- mass density (293.15 K, 40000 kPa): 1060.54 ± 1.1 kg/m3
- mass density (293.15 K, 50000 kPa): 1066.26 ± 1.1 kg/m3
- mass density (293.15 K, 60000 kPa): 1071.55 ± 1.1 kg/m3
- mass density (298.15 K, 100 kPa): 1028.78 ± 0.9 kg/m3
- mass density (298.15 K, 2500 kPa): 1030.66 ± 0.9 kg/m3
- mass density (298.15 K, 5000 kPa): 1032.56 ± 0.91 kg/m3
- mass density (298.15 K, 7500 kPa): 1034.43 ± 0.92 kg/m3
- mass density (298.15 K, 10000 kPa): 1036.23 ± 0.93 kg/m3
- mass density (298.15 K, 20000 kPa): 1043.21 ± 0.96 kg/m3
- mass density (298.15 K, 30000 kPa): 1049.76 ± 1 kg/m3
- mass density (298.15 K, 40000 kPa): 1055.69 ± 1 kg/m3
- mass density (298.15 K, 50000 kPa): 1061.53 ± 1.1 kg/m3
- mass density (298.15 K, 60000 kPa): 1066.96 ± 1.1 kg/m3
- mass density (303.15 K, 100 kPa): 1023.32 ± 0.89 kg/m3
- mass density (303.15 K, 2500 kPa): 1025.21 ± 0.89 kg/m3
- mass density (303.15 K, 5000 kPa): 1027.24 ± 0.9 kg/m3
- mass density (303.15 K, 7500 kPa): 1029.11 ± 0.91 kg/m3
- mass density (303.15 K, 10000 kPa): 1031 ± 0.91 kg/m3
- mass density (303.15 K, 20000 kPa): 1038.26 ± 0.95 kg/m3
- mass density (303.15 K, 30000 kPa): 1044.91 ± 0.98 kg/m3
- mass density (303.15 K, 40000 kPa): 1051.19 ± 1 kg/m3
- mass density (303.15 K, 50000 kPa): 1056.95 ± 1.1 kg/m3
- mass density (303.15 K, 60000 kPa): 1062.52 ± 1.1 kg/m3
- mass density (308.15 K, 100 kPa): 1017.84 ± 0.87 kg/m3
- mass density (308.15 K, 2500 kPa): 1019.82 ± 0.88 kg/m3
- mass density (308.15 K, 5000 kPa): 1021.87 ± 0.89 kg/m3
- mass density (308.15 K, 7500 kPa): 1023.84 ± 0.89 kg/m3
- mass density (308.15 K, 10000 kPa): 1025.7 ± 0.9 kg/m3
- mass density (308.15 K, 20000 kPa): 1033.08 ± 0.93 kg/m3
- mass density (308.15 K, 30000 kPa): 1039.92 ± 0.97 kg/m3
- mass density (308.15 K, 40000 kPa): 1046.28 ± 1 kg/m3
- mass density (308.15 K, 50000 kPa): 1052.19 ± 1.1 kg/m3
- mass density (308.15 K, 60000 kPa): 1057.98 ± 1.1 kg/m3
